These results are taken from patent publication US8198273B2, “Compounds and methods for kinase modulation, and indications therefor” (Plexxikon Inc., priority 2009, dated 2012).

The target in one series is B-Raf V600E (Homo sapiens, UniProt P15056, V600E). Kind of series: B-Raf V600E biochemical kinase inhibition (AlphaScreen, biotin-MEK1 substrate). Particulars: 100 μM ATP. An outline of the steps:
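Serial 1:3 dilutions of compound (0.1 mM DMSO stock, eight points) were added first, then ATP to start the reaction at 100 μM final.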

Series [1] concerns A375 melanoma cells (B-Raf V600E). Description: A375 cell growth inhibition (ATPlite). As to conditions: Homo sapiens, A-375, 72 h; A375, 3 days incubation. It is filed as cell-based. The method, boiled down: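 ATPlite luminescence, taken as a cell-number measure, gave IC50 values after a 3-day 37° C, 5% CO2 incubation. Compounds were tested as 8-point threefold titrations, highest final concentration 10 μM, added to cells seeded the day before.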

A further series deals with CYP2C19 (Homo sapiens, UniProt P33261). Description: CYP2C19 inhibition (fluorescent substrate). It counts as in vitro ADME. Particulars: CYP2C19, CEC substrate; read-out: Cyp IC50 2C19. An outline of the steps: (§1)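 First, 100 mM DMSO stocks are diluted into acetonitrile, then twofold through co-factor mix for 10 points. Next, mixtures are preincubated 10 min at 37 °C.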
CYP2C19, sequence (P33261 whole entry): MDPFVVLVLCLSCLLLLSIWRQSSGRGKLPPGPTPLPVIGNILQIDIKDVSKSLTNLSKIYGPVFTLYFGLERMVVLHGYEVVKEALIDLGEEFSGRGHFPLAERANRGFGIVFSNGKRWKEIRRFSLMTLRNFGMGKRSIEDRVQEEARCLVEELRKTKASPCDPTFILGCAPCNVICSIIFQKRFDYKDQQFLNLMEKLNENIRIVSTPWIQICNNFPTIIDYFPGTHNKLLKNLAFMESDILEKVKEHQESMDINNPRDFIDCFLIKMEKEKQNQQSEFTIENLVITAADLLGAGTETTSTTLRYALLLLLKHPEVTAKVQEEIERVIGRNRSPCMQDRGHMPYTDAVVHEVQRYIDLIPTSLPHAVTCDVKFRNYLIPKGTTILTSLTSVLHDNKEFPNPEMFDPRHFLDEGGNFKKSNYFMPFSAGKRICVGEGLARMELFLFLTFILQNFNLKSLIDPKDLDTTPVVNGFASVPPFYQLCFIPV

A further series has as its target CYP2C9 (Homo sapiens, UniProt P11712). Description: CYP2C9 inhibition (fluorescent substrate). It is filed as in vitro ADME. Particulars: CYP2C9, MFC substrate; read-out: Cyp IC50 2C9. The method, boiled down: as §1
In a further series the target is CYP2D6 (Homo sapiens, UniProt P10635). Description: CYP2D6 inhibition (fluorescent substrate). As to conditions: CYP2D6, AMMC substrate; read-out: Cyp IC50 2D6. It counts as in vitro ADME. An outline of the steps: as §1
CYP2D6, sequence (P10635 whole entry): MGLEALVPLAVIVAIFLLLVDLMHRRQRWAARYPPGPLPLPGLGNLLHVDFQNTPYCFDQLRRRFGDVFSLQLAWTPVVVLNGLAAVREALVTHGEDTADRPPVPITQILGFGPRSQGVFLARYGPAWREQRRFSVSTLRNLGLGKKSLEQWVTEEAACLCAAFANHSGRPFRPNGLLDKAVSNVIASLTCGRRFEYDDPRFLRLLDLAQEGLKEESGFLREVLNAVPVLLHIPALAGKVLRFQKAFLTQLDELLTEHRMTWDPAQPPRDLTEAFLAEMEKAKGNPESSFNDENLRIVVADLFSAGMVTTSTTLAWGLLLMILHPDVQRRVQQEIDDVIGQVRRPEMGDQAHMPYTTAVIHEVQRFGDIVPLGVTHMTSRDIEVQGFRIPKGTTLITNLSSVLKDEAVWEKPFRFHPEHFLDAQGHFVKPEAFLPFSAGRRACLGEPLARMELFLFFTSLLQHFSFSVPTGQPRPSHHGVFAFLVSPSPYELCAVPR

CYP2C9, sequence (P11712 whole entry): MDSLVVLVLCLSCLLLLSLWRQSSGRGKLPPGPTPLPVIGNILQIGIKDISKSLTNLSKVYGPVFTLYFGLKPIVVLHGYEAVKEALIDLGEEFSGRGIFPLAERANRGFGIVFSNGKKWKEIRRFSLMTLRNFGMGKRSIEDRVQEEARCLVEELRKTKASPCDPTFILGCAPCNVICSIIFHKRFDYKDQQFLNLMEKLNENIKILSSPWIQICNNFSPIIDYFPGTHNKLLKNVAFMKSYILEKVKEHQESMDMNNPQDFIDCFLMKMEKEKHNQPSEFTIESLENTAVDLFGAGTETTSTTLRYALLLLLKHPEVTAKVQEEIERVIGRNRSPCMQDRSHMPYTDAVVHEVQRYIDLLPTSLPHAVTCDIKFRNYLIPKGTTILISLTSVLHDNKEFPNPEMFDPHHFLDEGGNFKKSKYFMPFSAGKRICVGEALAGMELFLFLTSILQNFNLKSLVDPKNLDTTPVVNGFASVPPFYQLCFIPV
B-Raf V600E, sequence (P15056 whole entry V600E): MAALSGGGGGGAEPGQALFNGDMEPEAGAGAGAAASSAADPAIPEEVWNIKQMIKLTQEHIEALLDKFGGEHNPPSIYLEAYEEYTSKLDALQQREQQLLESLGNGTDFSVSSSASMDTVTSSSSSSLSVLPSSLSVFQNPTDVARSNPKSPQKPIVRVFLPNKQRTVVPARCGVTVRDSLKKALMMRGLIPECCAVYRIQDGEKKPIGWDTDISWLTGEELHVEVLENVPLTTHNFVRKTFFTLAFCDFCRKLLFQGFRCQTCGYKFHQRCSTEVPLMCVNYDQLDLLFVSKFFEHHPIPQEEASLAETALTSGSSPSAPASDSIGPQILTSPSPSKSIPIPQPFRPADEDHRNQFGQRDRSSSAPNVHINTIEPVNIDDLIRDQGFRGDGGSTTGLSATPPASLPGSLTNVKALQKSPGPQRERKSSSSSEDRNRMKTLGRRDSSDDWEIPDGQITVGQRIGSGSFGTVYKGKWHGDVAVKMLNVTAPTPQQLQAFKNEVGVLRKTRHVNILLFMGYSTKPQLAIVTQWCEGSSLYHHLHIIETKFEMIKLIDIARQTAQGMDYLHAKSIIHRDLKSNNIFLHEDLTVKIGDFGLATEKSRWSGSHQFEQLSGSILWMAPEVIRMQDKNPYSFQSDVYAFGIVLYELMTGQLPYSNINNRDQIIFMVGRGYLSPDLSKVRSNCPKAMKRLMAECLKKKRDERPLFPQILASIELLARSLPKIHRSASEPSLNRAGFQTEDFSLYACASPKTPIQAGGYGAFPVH

With `CCCS(=O)(=O)Nc1ccc(F)c(C(=O)c2c[nH]c3ncc(-c4ccc(SC)nc4)cc23)c1F` [P-2187, Propane-1-sulfonic acid {2,4-difluoro-3-[5-(6-methylsulfanyl-pyridin-3-yl)-1H-pyrrolo[2,3-b]pyridine-3-carbonyl]-phenyl}-amide], the IC50 at B-Raf V600E was less than 0.01 µM; in series [1] it was less than 1 µM; at CYP2C19 it was greater than 10 µM; on CYP2C9, greater than 10 µM; at CYP2D6 it was greater than 10 µM.
For `CCCS(=O)(=O)Nc1ccc(F)c(C(=O)c2c[nH]c3ncc(-c4cncc(S(C)(=O)=O)c4)cc23)c1F` [P-2188, Propane-1-sulfonic acid {2,4-difluoro-3-[5-(5-methanesulfonyl-pyridin-3-yl)-1H-pyrrolo[2,3-b]pyridine-3-carbonyl]-phenyl}-amide], the IC50 at B-Raf V600E was less than 0.01 µM; in series [1], less than 10 µM; on CYP2C19 it was greater than 10 µM; at CYP2C9, 5 to 10 µM; on CYP2D6, greater than 10 µM.
Consider `CCCS(=O)(=O)Nc1ccc(F)c(C(=O)c2c[nH]c3ncc(-c4cnc(SC)nc4)cc23)c1F` [P-2189, Propane-1-sulfonic acid {2,4-difluoro-3-[5-(2-methylsulfanyl-pyrimidin-5-yl)-1H-pyrrolo[2,3-b]pyridine-3-carbonyl]-phenyl}-amide], for which the IC50 against B-Raf V600E was less than 0.01 µM; in series [1] it was less than 1 µM; at CYP2C19, 5 to 10 µM; at CYP2C9, less than 5 µM; at CYP2D6 it was greater than 10 µM.
For the compound `CCCS(=O)(=O)Nc1ccc(F)c(C(=O)c2c[nH]c3ncc(-c4cnn(Cc5ccccc5)c4)cc23)c1F` [P-2190, Propane-1-sulfonic acid {3-[5-(1-benzyl-1H-pyrazol-4-yl)-1H-pyrrolo[2,3-b]pyridine-3-carbonyl]-2,4-difluoro-phenyl}-amide], the IC50 against B-Raf V600E is less than 0.01 µM; in series [1] it was less than 1 µM; on CYP2C19 it was 5 to 10 µM; at CYP2C9, less than 5 µM; at CYP2D6, greater than 10 µM.
Take `CCCS(=O)(=O)Nc1ccc(F)c(C(=O)c2c[nH]c3ncc(-c4ccnc(F)c4)cc23)c1F` [P-2192, Propane-1-sulfonic acid {2,4-difluoro-3-[5-(2-fluoro-pyridin-4-yl)-1H-pyrrolo[2,3-b]pyridine-3-carbonyl]-phenyl}-amide]: the half-inhibitory concentration (IC50) at B-Raf V600E was less than 0.01 µM; in series [1] it was less than 1 µM; at CYP2C19, greater than 10 µM; on CYP2C9, 5 to 10 µM; at CYP2D6, greater than 10 µM.
As for `CCCS(=O)(=O)Nc1ccc(F)c(C(=O)c2c[nH]c3ncc(-c4ccc(NC(C)=O)nc4)cc23)c1F` [P-2193, N-(5-{3-[2,6-Difluoro-3-(propane-1-sulfonylamino)-benzoyl]-1H-pyrrolo[2,3-b]pyridin-5-yl}-pyridin-2-yl)-acetamide], the IC50 on B-Raf V600E was less than 0.01 µM; in series [1] it was less than 1 µM; on CYP2C19, 5 to 10 µM; on CYP2C9 it was greater than 10 µM; at CYP2D6 it was greater than 10 µM.
Turning to `CCCS(=O)(=O)Nc1ccc(F)c(C(=O)c2c[nH]c3ncc(-c4ccc(S(N)(=O)=O)cc4)cc23)c1F` [P-2194, 4-{3-[2,6-Difluoro-3-(propane-1-sulfonylamino)-benzoyl]-1H-pyrrolo[2,3-b]pyridin-5-yl}-benzenesulfonamide], the IC50 at B-Raf V600E was less than 0.01 µM; in series [1], less than 5 µM; on CYP2C19, greater than 10 µM; on CYP2C9, greater than 10 µM; on CYP2D6, greater than 10 µM.
In the case of `CCCS(=O)(=O)Nc1ccc(F)c(C(=O)c2c[nH]c3ncc(-c4cnc(N(C)C)nc4)cc23)c1F` [P-2196, Propane-1-sulfonic acid {3-[5-(2-dimethylamino-pyrimidin-5-yl)-1H-pyrrolo[2,3-b]pyridine-3-carbonyl]-2,4-difluoro-phenyl}-amide], the IC50 against B-Raf V600E was less than 0.01 µM; in series [1], less than 1 µM; on CYP2C19, greater than 10 µM; on CYP2C9, 5 to 10 µM; at CYP2D6 it was greater than 10 µM.
As to `CCCS(=O)(=O)Nc1ccc(F)c(C(=O)c2c[nH]c3ncc(-c4cnc(N5CCOCC5)nc4)cc23)c1F` [P-2197, Propane-1-sulfonic acid {2,4-difluoro-3-[5-(2-morpholin-4-yl-pyrimidin-5-yl)-1H-pyrrolo[2,3-b]pyridine-3-carbonyl]-phenyl}-amide], the half-maximal inhibitory concentration (IC50) at B-Raf V600E was less than 0.01 µM; in series [1], less than 1 µM; on CYP2C19, greater than 10 µM; at CYP2C9, greater than 10 µM; at CYP2D6, greater than 10 µM.
As for `CCCS(=O)(=O)Nc1ccc(F)c(C(=O)c2c[nH]c3ncc(-c4cnc(OC)nc4OC)cc23)c1F` [P-2199, Propane-1-sulfonic acid {3-[5-(2,4-dimethoxy-pyrimidin-5-yl)-1H-pyrrolo[2,3-b]pyridine-3-carbonyl]-2,4-difluoro-phenyl}-amide], the IC50 against B-Raf V600E is less than 0.01 µM; in series [1], less than 5 µM; on CYP2C19, greater than 10 µM; on CYP2C9, greater than 10 µM; at CYP2D6, greater than 10 µM.
Consider `CCCS(=O)(=O)Nc1ccc(F)c(C(=O)c2c[nH]c3ncc(-c4cnc(C)nc4)cc23)c1F` [P-2211, Propane-1-sulfonic acid {2,4-difluoro-3-[5-(2-methyl-pyrimidin-5-yl)-1H-pyrrolo[2,3-b]pyridine-3-carbonyl]-phenyl}-amide], for which the IC50 is less than 0.01 µM against B-Raf V600E; less than 1 µM in series [1]; 5 to 10 µM on CYP2C19; greater than 10 µM at CYP2C9; greater than 10 µM on CYP2D6.
In the case of `CCCS(=O)(=O)Nc1ccc(F)c(C(=O)c2c[nH]c3ncc(-c4ccc(C)nc4)cc23)c1F` [P-2213, Propane-1-sulfonic acid {2,4-difluoro-3-[5-(6-methyl-pyridin-3-yl)-1H-pyrrolo[2,3-b]pyridine-3-carbonyl]-phenyl}-amide], the IC50 against B-Raf V600E is less than 0.01 µM; in series [1], less than 1 µM; on CYP2C19 it was greater than 10 µM; at CYP2C9, less than 5 µM; at CYP2D6 it was greater than 10 µM.
On to `CCCS(=O)(=O)Nc1ccc(F)c(C(=O)c2c[nH]c3ncc(-c4ccc(N)nc4)cc23)c1F` [P-2214, Propane-1-sulfonic acid {3-[5-(6-amino-pyridin-3-yl)-1H-pyrrolo[2,3-b]pyridine-3-carbonyl]-2,4-difluoro-phenyl}-amide], for which the IC50 was less than 0.01 µM against B-Raf V600E; less than 1 µM in series [1]; 5 to 10 µM on CYP2C19; greater than 10 µM at CYP2C9; greater than 10 µM at CYP2D6.
For the compound `CCCS(=O)(=O)Nc1ccc(F)c(C(=O)c2c[nH]c3ncc(-c4cnc(N5CCCC5)nc4)cc23)c1F` [P-2219, Propane-1-sulfonic acid {2,4-difluoro-3-[5-(2-pyrrolidin-1-yl-pyrimidin-5-yl)-1H-pyrrolo[2,3-b]pyridine-3-carbonyl]-phenyl}-amide], the IC50 was less than 0.1 µM against B-Raf V600E; less than 0.1 µM in series [1]; less than 5 µM at CYP2C19; greater than 10 µM at CYP2C9; greater than 10 µM at CYP2D6.
As for `CCCS(=O)(=O)Nc1ccc(F)c(C(=O)c2c[nH]c3ncc(-c4ccc(C#CCN(CC)CC)nc4)cc23)c1F` [P-2222, Propane-1-sulfonic acid (3-{5-[6-(3-diethylamino-prop-1-ynyl)-pyridin-3-yl]-1H-pyrrolo[2,3-b]pyridine-3-carbonyl}-2,4-difluoro-phenyl)-amide], the IC50 is less than 0.01 µM at B-Raf V600E; less than 0.1 µM in series [1]; less than 5 µM on CYP2C19; 5 to 10 µM at CYP2C9; 5 to 10 µM on CYP2D6.
